Counter-ions that a name gives are not always drawn.
Target: MASP-2 CCP2-SP (Homo sapiens (Human), UniProt O00187)
Test: MASP-2 co-crystallization, X-ray crystallography and structure analysis (H-bonds, van der Waals contacts);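 for Ligand-pharmacophore element distance, pharmacophore element C2: distance from averaged pharmacophore element to bound ligand; missing value means element absent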;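 for Ligand-pharmacophore element distance, pharmacophore element C3: distance from averaged pharmacophore element to bound ligand; missing value means element absent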;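 for Ligand-pharmacophore element distance, pharmacophore element C4: distance from averaged pharmacophore element to bound ligand; missing value means element absent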;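 for Ligand-pharmacophore element distance, pharmacophore element C5: distance from averaged pharmacophore element to bound ligand; missing value means element absent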
Set-up: van der Waals contact distance, MASP-2 HIS 483 atom CD2 / van der Waals contact distance, MASP-2 HIS 483 atom NE2 / van der Waals contact distance, SER 654 C to compound atom / van der Waals contact distance, SER 654 O to compound atom / van der Waals contact distance, TRP 655 C to compound atom / van der Waals contact distance, MASP-2 GLY 528 atom CA / van der Waals contact distance TRP 655 atom CZ3 / van der Waals contact distance TRP 655 atom N / van der Waals contact distance TRP 655 atom CE3 / van der Waals contact distance GLY 656 atom C / van der Waals contact distance GLY 656 atom CA / van der Waals contact distance GLY 656 atom O / van der Waals contact distance, MASP-2 TYR 607 atom CD1 / van der Waals contact distance, MASP-2 PRO 606 atom O / d(C3,CA1) / d(CA1,N1)2 / d(H4,O1) / d(H4,O2) / d(O1,O2) / d(CA1,O2) / d(CA6,O1) / d(CA6,O2) / d(CA1,C5) / d(O2,H3) / d(N2,C2) / d(CA5,N2) / d(N2,C4) / d(N2,C6) / d(N2,CA3) / d(N2,O3) / d(O4,H2): unit not given beside the values
Conditions: for Ligand-pharmacophore element distance, pharmacophore element C2 / Ligand-pharmacophore element distance, pharmacophore element C3 / Ligand-pharmacophore element distance, pharmacophore element C4 / Ligand-pharmacophore element distance, pharmacophore element C5 / Ligand-pharmacophore element distance, pharmacophore element C6 / Ligand-pharmacophore element distance, pharmacophore element C7 / Ligand-pharmacophore element distance, pharmacophore element CA1 / Ligand-pharmacophore element distance, pharmacophore element CA2 / Ligand-pharmacophore element distance, pharmacophore element CA3 / Ligand-pharmacophore element distance, pharmacophore element CA4 / Ligand-pharmacophore element distance, pharmacophore element CA5 / Ligand-pharmacophore element distance, pharmacophore element CA6: Table A4-1; for a(O1, O2, H3) / a(O1, O2, N2) / a(O2, N2, C2) / a(O2, N2, CA2): Table A6-2 pharmacophore angle
Outline: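 Contacts and H-bonds come from partially refined soaked-crystal structures of recombinant human CCP2-SP made in E. coli, solved by molecular replacement against 1Q3X fragments. Where several ligand poses appeared, only one was analysed; listed nonbonded contacts may include possible H-bond pairings.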

[1] = Table A5-1 pharmacophore: distance between elements, S2/S1 region
[2] = Table A5-2 pharmacophore distance, S3/S4 region
[3] = Table A7-1, between pharmacophore elements of the bound compound
[4] = Table A7-2, between pharmacophore elements of the bound compound
[5] = Table A8-6, nearest protein atom in cell to the left

Sequence of MASP-2 CCP2-SP (O00187 445-686): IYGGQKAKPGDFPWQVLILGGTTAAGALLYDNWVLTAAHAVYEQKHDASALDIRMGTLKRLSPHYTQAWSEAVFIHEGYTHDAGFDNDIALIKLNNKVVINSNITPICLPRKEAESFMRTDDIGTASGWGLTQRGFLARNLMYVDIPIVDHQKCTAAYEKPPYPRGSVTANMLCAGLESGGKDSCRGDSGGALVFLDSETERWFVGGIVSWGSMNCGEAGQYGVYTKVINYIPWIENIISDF
Sequence of MASP-2 CCP2-SP (O00187 364-432 partner): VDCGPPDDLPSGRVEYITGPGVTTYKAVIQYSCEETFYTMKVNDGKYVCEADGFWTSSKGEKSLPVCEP

Structure (SMILES): C[C@H](NC(=O)[C@H]1C[C@@H](c2ccccc2)CCN1)C(=O)NCc1cc(Cl)ccc1O.Cl [1078_1]
- Ligand-pharmacophore element distance, pharmacophore element C2: 0.69
- Ligand-pharmacophore element distance, pharmacophore element C3: 0
- Ligand-pharmacophore element distance, pharmacophore element C4: 0
- Ligand-pharmacophore element distance, pharmacophore element C5: 0.4
- Ligand-pharmacophore element distance, pharmacophore element C6: 0
- Ligand-pharmacophore element distance, pharmacophore element C7: 0
- Ligand-pharmacophore element distance, pharmacophore element CA1: 1.58
- Ligand-pharmacophore element distance, pharmacophore element CA2: 0.48
- Ligand-pharmacophore element distance, pharmacophore element CA3: 0
- Ligand-pharmacophore element distance, pharmacophore element CA4: 0
- Ligand-pharmacophore element distance, pharmacophore element CA5: 0
- Ligand-pharmacophore element distance, pharmacophore element CA6: 0
- d(CA1,C5) [1]: 3.12
- d(CA1,O1) [1]: 4.56
- d(CA1,O2) [1]: 4.72
- d(CA1,O4) [1]: 2.75
- d(H4,O1) [1]: 2.29
- d(H4,O2) [1]: 2.61
- d(O1,O2) [1]: 3.05
- d(O4,H2) [1]: 0.97
- d(N2,C2) [2]: 1.48
- d(N2,CA2) [2]: 5.74
- d(O2,H3) [2]: 2.93
- d(O2,N2) [2]: 2.77
- a(C5, CA1, O1) (Table A6-1 pharmacophore angle): 160.22
- a(CA1, O1, O2) (Table A6-1 pharmacophore angle): 111.94
- a(CA1, O4, H2) (Table A6-1 pharmacophore angle): 126.79
- a(O1, CA1, O4) (Table A6-1 pharmacophore angle): 68.03
- a(O1, O2, H4) (Table A6-1 pharmacophore angle): 103.21
- a(O1, O2, H3): 141.96
- a(O1, O2, N2): 145.93
- a(O2, N2, C2): 121.70
- a(O2, N2, CA2): 154.68
- Pharmacophore torsion angle a(C5, CA1, O1, H4) [3]: 25.08
- Pharmacophore torsion angle a(H4, O1, O2, H3) [3]: −119.94
- Pharmacophore torsion angle a(H4, O1, O2, N2) [3]: −112.97
- Pharmacophore torsion angle a(O1, H4, O2, CA1) [3]: −60.12
- Pharmacophore torsion angle a(O1, O2, N2, C2) [3]: 138.25
- Pharmacophore torsion angle a(O1, O2, N2, CA2) [4]: 140.46
- Pharmacophore protein distance to MET_658 (first MET_658 column) (Table A8-6, 6th residue column, nearest protein atom in cell to the left): 2.97
- Pharmacophore protein distance to MET_658 (second MET_658 column) (Table A8-6, 9th residue column, nearest protein atom in cell to the left): 3.50
- Pharmacophore protein distance to GLY_528 [5]: 3.66
- Pharmacophore protein distance to PHE_529 [5]: 3.30
- Pharmacophore protein distance to PRO_608 [5]: 3.85
- Pharmacophore protein distance to SER_611 [5]: 2.41
- Pharmacophore protein distance to TRP_655 (Table A8-6, pharmacophore elements C6, CA3, O3, H1, nearest protein atom in cell to the left): 3.68

Structure (SMILES): C[C@H](NC(=O)[C@H]1C[C@@H](c2ccccc2)CCN1)C(=O)NCc1cc(Cl)ccc1O.Cl [1078_14]
- Ligand-pharmacophore element distance, pharmacophore element C2: 0.74
- Ligand-pharmacophore element distance, pharmacophore element C3: 0
- Ligand-pharmacophore element distance, pharmacophore element C4: 0
- Ligand-pharmacophore element distance, pharmacophore element C5: 0.47
- Ligand-pharmacophore element distance, pharmacophore element C6: 0
- Ligand-pharmacophore element distance, pharmacophore element C7: 0
- Ligand-pharmacophore element distance, pharmacophore element CA1: 1.61
- Ligand-pharmacophore element distance, pharmacophore element CA2: 0.8
- Ligand-pharmacophore element distance, pharmacophore element CA3: 0
- Ligand-pharmacophore element distance, pharmacophore element CA4: 0
- Ligand-pharmacophore element distance, pharmacophore element CA5: 0
- Ligand-pharmacophore element distance, pharmacophore element CA6: 0
- d(CA1,C5) [1]: 3.13
- d(CA1,O1) [1]: 4.46
- d(CA1,O2) [1]: 4.47
- d(CA1,O4) [1]: 2.75
- d(H4,O1) [1]: 2.48
- d(H4,O2) [1]: 2.59
- d(O1,O2) [1]: 2.91
- d(O4,H2) [1]: 0.97
- d(N2,C2) [2]: 1.45
- d(N2,CA2) [2]: 5.69
- d(O2,H3) [2]: 2.58
- d(O2,N2) [2]: 2.77
- a(C5, CA1, O1) (Table A6-1 pharmacophore angle): 159.36
- a(CA1, O1, O2) (Table A6-1 pharmacophore angle): 109.29
- a(CA1, O4, H2) (Table A6-1 pharmacophore angle): 126.58
- a(O1, CA1, O4) (Table A6-1 pharmacophore angle): 70.42
- a(O1, O2, H4) (Table A6-1 pharmacophore angle): 109.80
- a(O1, O2, H3): 144.55
- a(O1, O2, N2): 148.03
- a(O2, N2, C2): 129.57
- a(O2, N2, CA2): 155.65
- Pharmacophore torsion angle a(C5, CA1, O1, H4) [3]: 20.44
- Pharmacophore torsion angle a(H4, O1, O2, H3) [3]: −134.39
- Pharmacophore torsion angle a(H4, O1, O2, N2) [3]: −121.21
- Pharmacophore torsion angle a(O1, H4, O2, CA1) [3]: −62.09
- Pharmacophore torsion angle a(O1, O2, N2, C2) [3]: 126.74
- Pharmacophore torsion angle a(O1, O2, N2, CA2) [4]: 134.23

Structure (SMILES): CC(=O)Nc1ccc(CCN[C@H](CCc2ccccc2)C(=O)N[C@@H](C)C(=O)NCc2ccc(N)nc2C)cc1 [compound 1368, (R)-2-((4-Acetamidophenethyl)amino)-N—((S)-1-(((6-amino-2-methylpyridin-3-yl)methyl)amino)-1-oxopropan-2-yl)-4-phenylbutanamide Dihydrochloride]
- H-bond distance to MASP-2 ASP 627 atom OD2 (Table A1 (H-Bonds), ASP 627 OD2): 3.24
- H-bond distance to MASP-2 GLY 656 atom N (Table A1 (H-Bonds), GLY 656 N): 3.07
- H-bond distance to MASP-2 PRO 606 atom O (Table A1 (H-Bonds), PRO 606 O): 3.21
- H-bond distance to MASP-2 SER 628 atom O (Table A1 (H-Bonds), SER 628 O): 3.16
- H-bond distance to MASP-2 SER 654 atom O (Table A1 (H-Bonds), SER 654 O): 3.04
- H-bond distance to MASP-2 SER 657 atom O (Table A1 (H-Bonds), SER 657 O): 2.94
- van der Waals contact distance, MASP-2 HIS 483 atom CD2 (Table A2-1): 3.86
- van der Waals contact distance, MASP-2 HIS 483 atom NE2 (Table A2-1): 3.67
- van der Waals contact distance, MASP-2 PHE 529 atom CE2 (Table A2-3): 3.79
- van der Waals contact distance, MASP-2 PHE 529 atom CZ (Table A2-3): 3.71
- van der Waals contact distance, MASP-2 PRO 606 atom CB (Table A2-4): 3.6
- van der Waals contact distance, MASP-2 PRO 606 atom O (Table A2-4): 3.75
- van der Waals contact distance, MASP-2 amino acid atom to compound atom (Table A2-7: SER 628 (CB, O, OG)): 3.63
- van der Waals contact distance, VAL 653 CG1 to compound atom (Table A2-11): 3.32
- van der Waals contact distance, SER 654 O to compound atom (Table A2-12): 3.85
- van der Waals contact distance, TRP 655 CA to compound atom (Table A2-12): 3.29
- van der Waals contact distance TRP 655 atom CE3 (Table A2-13, MASP-2 TRP 655 CE3, compound atom in line below): 3.52
- van der Waals contact distance TRP 655 atom CZ3 (Table A2-13, MASP-2 TRP 655 CZ3): 3.87
- Ligand-pharmacophore element distance, pharmacophore element C2: 0
- Ligand-pharmacophore element distance, pharmacophore element C3: 0.16
- Ligand-pharmacophore element distance, pharmacophore element C4: 0
- Ligand-pharmacophore element distance, pharmacophore element C5: 0
- Ligand-pharmacophore element distance, pharmacophore element C6: 0
- Ligand-pharmacophore element distance, pharmacophore element C7: 0
- Ligand-pharmacophore element distance, pharmacophore element CA1: 0.62
- Ligand-pharmacophore element distance, pharmacophore element CA2: 0.95
- Ligand-pharmacophore element distance, pharmacophore element CA3: 0
- Ligand-pharmacophore element distance, pharmacophore element CA4: 0
- Ligand-pharmacophore element distance, pharmacophore element CA5: 2.23
- Ligand-pharmacophore element distance, pharmacophore element CA6: 0
- d(C3,CA1) [1]: 2.86
- d(CA1,N1)2 [1]: 1.39
- d(CA1,O1) [1]: 4.30
- d(CA1,O2) [1]: 8.92
- d(H4,O1) [1]: 4.34
- d(H4,O2) [1]: 8.84
- d(O1,O2) [1]: 7.07
- d(CA5,N2) [2]: 4.47
- d(N2,CA2) [2]: 6.36
- d(O2,H3) [2]: 7.79
- d(O2,N2) [2]: 4.30
- a(C3, CA1, O1) (Table A6-1 pharmacophore angle): 149.59
- a(CA1, O1, O2) (Table A6-1 pharmacophore angle): 151.69
- a(O1, O2, H4) (Table A6-1 pharmacophore angle): 127.75
- a(N1, CA1, O1) b) (Table A6-1 pharmacophore angle, Methyl-amino-pyridine compounds): 173.57
- a(O1, O2, H3): 119.72
- a(O1, O2, N2): 74.03
- a(O2, N2, CA2): 145.05
- Pharmacophore torsion angle a(C3, CA1, O1, H4) [3]: 22.95
- Pharmacophore torsion angle a(H4, O1, O2, H3) [3]: 40.86
- Pharmacophore torsion angle a(H4, O1, O2, N2) [3]: 68.19
- Pharmacophore torsion angle a(N1, CA1, O1, H4) [3]: −2.26
- Pharmacophore torsion angle a(O1, H4, O2, CA1) [3]: −74.89
- Pharmacophore torsion angle a(O1, O2, N2, CA2) [4]: −100.57
- Pharmacophore torsion angle a(O1, O2, N2, CA5) [4]: 124.36

Source: patent US12195427B2, “MASP-2 inhibitors and methods of use” (priority 2018, dated 2025)
